Here are results for 5 molecules from patent publication US11124788B2, “Asx-specific protein ligase” (NANYANG TECHNOLOGICAL UNIVERSITY, priority 2014, dated 2021).

The subject of series [1] is butelase 1. Put plainly: In vitro cyclization of peptide/protein substrates by butelase 1 (HPLC/MS yield). It counts as biochemical, Clitoria ternatea.
For series [2], the system named is butelase 1. The experiment in a line: Michaelis-Menten kinetics of butelase 1 as a peptide cyclase. It counts as biochemical, Clitoria ternatea.
Series [3] relates to butelase 1. Put plainly: Hydrolysis of Z-AAN-AMC by butelase 1 (asparaginyl endopeptidase activity). The format is biochemical, Clitoria ternatea. The following applies: 50 mM Z-AAN-AMC, 30 h.
Another series has as its target T1, jack bean legumain (Canavalia ensiformis, UniProt P49046).
T1 construct: purchased Takara Bio (Japan)
T1 sequence (P49046 36-475): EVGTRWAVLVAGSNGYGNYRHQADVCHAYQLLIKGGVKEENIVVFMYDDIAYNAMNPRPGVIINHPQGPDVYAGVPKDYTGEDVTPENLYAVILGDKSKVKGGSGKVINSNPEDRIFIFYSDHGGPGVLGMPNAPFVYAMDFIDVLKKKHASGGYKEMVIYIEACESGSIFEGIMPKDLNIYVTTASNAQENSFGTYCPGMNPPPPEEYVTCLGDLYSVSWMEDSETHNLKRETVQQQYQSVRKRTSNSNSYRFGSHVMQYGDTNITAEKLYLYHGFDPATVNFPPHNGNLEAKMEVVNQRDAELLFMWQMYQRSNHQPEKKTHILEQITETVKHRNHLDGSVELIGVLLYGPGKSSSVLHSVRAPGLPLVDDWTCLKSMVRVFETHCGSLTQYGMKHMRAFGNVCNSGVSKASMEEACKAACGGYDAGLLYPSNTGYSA
Put plainly: Hydrolysis of Z-AAN-AMC by jack bean legumain (positive control). It counts as biochemical. The note with it: same experimental conditions, 30 h.

Series [4] is described as follows: Solubility of butelase 1 in water.
A short description of series [5]: Storage stability of purified butelase 1. The following applies: 30 days at 4° C.
Setting [6] is: butelase 1 cyclization, 37° C., 0.125 μM enzyme, 12 min (SA-kB1-NHV: 5 nM, 6 min).

Where two headings read alike, the source gives them in different places. Residues, ends and D or L forms follow the SMILES beside them. *: point of attachment. AMC = Cc1cc(=O)oc2cc(N*)ccc12; Cbz = O=C(OCc1ccccc1)*

What is called Km is the concentration of substrate that gives half-maximal velocity. What is called kcat is the maximal rate divided by the concentration of active sites. Take “SFTI-NHV: SEQ ID NO:135, GRCTKSIPPICFPNHV; 16-residue linear substrate”: in the series with butelase 1 [1], the “Cyclization efficiency, SFTI-NHV compared with SFTI-DHV” value is reported as “significantly more efficient”. Besides, in the series with butelase 1 [2] (setting [6]), the Km is 51 ± 4 µM and the catalytic constant (kcat) was 0.6 ± 0.02 s⁻¹. Further, in the series on butelase 1 [2] (butelase 1 cyclization, 37° C., 0.125 μM enzyme, 12 min (SA-kB1-NHV: 5 nM, 6 min), listed as SFT1-NHV), the kcat worked out at 0.6 ± 0.02 s⁻¹.
For Neuromedin ∪, in the series on butelase 1 [2], the Km was 8.7 ± 2.1 µM and the kcat stood at 5.78 ± 0.36 s⁻¹.
`Cc1cc(=O)oc2cc(NC(=O)[C@H](CC(N)=O)NC(=O)[C@H](C)NC(=O)[C@H](C)NC(=O)OCc3ccccc3)ccc12` [Z-AAN-AMC, N-carbobenzyloxy-Ala-Ala-Asn-7-amido-4-methylcoumarin] (Cbz-Ala-Ala-Asn-{AMC}): the “Hydrolyzed product formed (RP-HPLC)” value with butelase 1 [3] is reported as < 3%. Besides, the “Hydrolysis of Z-AAN-AMC” value at jack bean legumain is recorded as “completely hydrolyzed”.
As for Apelin, in the series with butelase 1 [2], the Michaelis constant (Km) stood at 6.7 ± 1.4 µM and the kcat was 5.78 ± 0.25 s⁻¹.

B1: butelase 1: Asx-specific peptide ligase/cyclase isolated from Clitoria ternatea, amino acid sequence SEQ ID NO:1 (protein, listed as Clitoria ternatea)
chain: VEGTRWAVLVAGSKGYVNYRHQADVCHAYQILKKGGLKDENIIVFMYDDIAYNESNPHPGVIINHPYGSDVYKGVPKDYVGEDINPPNFYAVLLANKSALTGTGSGKVLDSGPNDHVFIYYTDHGGAGVLGMPSKPYIAASDLNDVLKKKHASGTYKSIVFYVESCESGSMFDGLLPEDHNIYVMGASDTGESSWVTYCPLQHPSPPPEYDVCVGDLFSVAWLEDCDVHNLQTETFQQQYEVVKNKTIVALIEDGTHVVQYGDVGLSKQTLFVYMGTDPANDNNTFTDKNSLGTPRKAVSQRDADLIHYWEKYRRAPEGSSRKAEAKKQLREVMAHRMHIDN
Consider B1, for which the “Catalytic rate relative to sortase A” value in the series with butelase 1 [1] (GFP as a model protein) is on record as ~10,000. Besides, the Catalytic activities in the series with butelase 1 [2] (highest value stated in the summary) is reported as ≤ 542,000 M^−s^−1. Besides, the “Solubility in water (concentration achieved)” value in series [4] worked out at 10 mg/mL. The “Stability of enzyme activity” value in series [5] was “minimal loss of activity”.
